The source of these data is US4820723A, “Disubstituted tetrazole leukotriene antagonists and methods for their use thereas” (Eli Lilly and Company, priority 1987, dated 1989).

The assay deals with LTD4 evoked ileal contractions. The assay can be described thus: LTD4 antagonism: inhibition of LTD4 evoked contractions of isolated guinea pig ileum. On the set-up: species or system Male, Hartley guinea pigs. As to conditions: 5 min exposure to drug, 50% inhibition of LTD4 responses, 37° C. The protocol:
Male, Hartley guinea pigs weighing 200-450 grams were killed by decapitation. A section of terminal ileum was removed, the lumen cleaned, and the tissue divided into 2.5 cm segments. The ilea were mounted in 10 ml tissue baths containing Krebs-bicarbonate solution of the following composition in mmoles/liter: KCl, 4.6; CaCl2 ·2H2 O, 1.2; KH2 PO4, 1.2; MgSO4 ·7H2 O, 1.2; NaCl, 118.2; NaHCO3, 24.8; and dextrose, 10.0. The bath fluid was maintained at 37° C. and aerated with 95 percent oxygen and 5 percent CO2. In addition, the buffer contained 1×10^-6 M atropine to reduce ileal spontaneous activity. Isometric measurements were made with a Grass FT03C force-displacement transducer and recorded on a Grass polygraph as change in grams of force. A passive force of 0.5 g. was applied to the tissues. After an appropriate equilibration period, single submaximal control responses to pure LTD4 were obtained. Following a five minute exposure of the ileum to an experimental drug, the control concentration of LTD4 was added to the tissue bath. The response of the ileum to LTD4 in the presence of the drug was compared to the response in the absence of the drug. Various degrees of LTD4 antagonism were obtained using 2-4 different concentrations of an experimental compound on a single ileum.
Percent inhibition of LTD4 evoked ileal contractions
With `CCCc1c(OCCCc2nnn(CC(=O)O)n2)ccc(C(C)=O)c1O` [C], the “-log IC50” value worked out at 5.82.

With `CCCc1c(OCCCc2nnnn2CC(=O)O)ccc(C(C)=O)c1O` [D], the “-log IC50” value turned out to be 5.95.

With `CCCc1c(OCCCCc2nnnn2CCCCC(=O)O)ccc(C(C)=O)c1O` [Example 24], the “-log IC50” value is listed as 6.14.

Turning to `CCCc1c(OCCCCc2nnnn2Cc2ccc(C(=O)O)cc2)ccc(C(C)=O)c1O` [Example 33, 5-[4-(4-Acetyl-3-hydroxy-2-(n-propyl)phenoxy)butyl]-1H-tetrazole-1-[para-methylenebenzoic acid]], the “-log IC50” value came to 6.30.

With `CCCc1c(OCCCCCc2nnn(CCCc3nn[nH]n3)n2)ccc(C(C)=O)c1O` [Example 38], the “-log IC50” value is on record as 6.62.

With `CCCc1c(OCCCCCc2nnn(CCCCc3nnn[nH]3)n2)ccc(C(C)=O)c1O` [Example 40, 5-[5-(4-Acetyl-3-hydroxy-2-(n-propyl)phenoxy)pentyl]-2-[4-(1H-tetrazol-5-yl)butyl]-2H-tetrazole], the “-log IC50” value turned out to be 6.83.

With `CCCc1c(Oc2ccc(-c3nnn(CCCc4nn[nH]n4)n3)cc2)ccc(C(C)=O)c1O` [Example 59], the “-log IC50” value came to 7.50.

`CCCc1c(Oc2ccc(-c3nnn(CCCC(=O)O)n3)cc2)ccc(C(C)=O)c1O` [Example 60, 5-[para-(4-Acetyl-3-hydroxy-2-(n-propyl)phenoxy)phenyl]-2H-tetrazole-2-[4-butanoic acid]]: the “-log IC50” value came out at 7.26.

As to `CCCc1c(OCCCc2nnnn2CCCCC(=O)O)ccc(C(C)=O)c1O` [Example 61, 5-[3-(4-Acetyl-3-hydroxy-2-(n-propyl)phenoxy)propyl]-1H-tetrazole-1-[5-pentanoic acid]], the “-log IC50” value worked out at 5.20.

Regarding `CCCc1c(OCCCc2nnn(CCCCC(=O)O)n2)ccc(C(C)=O)c1O` [Example 62, 5-[3-(4-Acetyl-3-hydroxy-2-propylphenoxy)-propyl]-2H-tetrazol-2-(5-pentanoic acid)], the “-log IC50” value amounted to 6.47.

Turning to `CCCc1c(OCCCCn2nnc(CCCC(=O)O)n2)ccc(C(C)=O)c1O` [Example 64, 2-[4-(4-Acetyl-3-hydroxy-2-(n-propyl)phenoxy)-butyl]-2H-tetrazole-5-butanoic acid], the “-log IC50” value is recorded as 7.51.

Turning to `CCCc1c(OCCCCn2nnnc2CCCC(=O)O)ccc(C(C)=O)c1O` [Example 65, 1-4-(4-acetyl-3-hydroxy-2-(n-propylphenoxy)butyl]-1H-tetrazole-5-butanoic acid], the “-log IC50” value came out at 6.18.

For `CCCc1c(OCCCCn2nnc(Cc3ccc(C(=O)O)cc3)n2)ccc(C(C)=O)c1O` [Example 67, 4-[[2-[4-(4-Acetyl-3-hydroxy-2-(n-propyl)phenoxy)butyl]-2H-tetrazol-5-yl]methyl]benzoic acid], the “-log IC50” value was determined as 7.25.

Regarding `CCCc1c(OCCCCn2nnnc2Cc2ccc(C(=O)O)cc2)ccc(C(C)=O)c1O` [Example 68], the “-log IC50” value was determined as 6.66.
